# Publication PMC8655505, “Stimulation of the Runx2 P1 promoter by collagen-derived dipeptide prolyl-hydroxyproline bound to Foxg1 and Foxo1 in osteoblasts” (Bioscience Reports, 2021)
# Square brackets hold non-standard residues; d marks the D form. Peptide text beside a SMILES is read from it. Hyp = O=C(O)[C@@H]1C[C@@H](O)CN1
# Molecular target: T1, Foxo1 (Mus musculus, UniProt Q9R1E0)
# T1 construct: full-length
# Test: competition of free Pro-Hyp with (Pro-Hyp-Gly)5-linked magnetic beads, Western blot
# Type: binding
# Conditions: free Pro-Hyp 0.1 or 10 mM; pH 7.8, 150 mM KCl, 4 °C overnight; cell extract
# T1 sequence (Q9R1E0 whole entry): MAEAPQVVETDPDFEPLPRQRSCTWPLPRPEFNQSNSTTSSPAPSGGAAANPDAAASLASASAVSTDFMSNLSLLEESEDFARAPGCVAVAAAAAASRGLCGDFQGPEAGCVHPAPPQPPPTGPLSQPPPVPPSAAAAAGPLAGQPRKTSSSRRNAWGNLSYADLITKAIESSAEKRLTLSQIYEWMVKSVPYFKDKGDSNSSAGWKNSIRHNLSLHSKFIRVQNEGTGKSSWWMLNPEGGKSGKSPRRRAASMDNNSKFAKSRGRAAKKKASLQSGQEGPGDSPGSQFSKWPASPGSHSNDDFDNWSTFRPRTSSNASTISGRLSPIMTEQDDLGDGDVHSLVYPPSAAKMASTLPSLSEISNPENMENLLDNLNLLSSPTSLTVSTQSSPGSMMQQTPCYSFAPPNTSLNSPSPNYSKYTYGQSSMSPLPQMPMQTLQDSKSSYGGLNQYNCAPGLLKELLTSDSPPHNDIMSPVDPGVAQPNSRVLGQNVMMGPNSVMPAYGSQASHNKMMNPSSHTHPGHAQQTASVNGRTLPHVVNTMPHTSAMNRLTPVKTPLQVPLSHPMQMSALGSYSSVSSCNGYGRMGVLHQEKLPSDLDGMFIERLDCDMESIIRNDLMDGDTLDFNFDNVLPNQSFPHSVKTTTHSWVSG
smiles,measurement,value
O=C(O)[C@@H]1C[C@@H](O)CN1C(=O)[C@@H]1CCCN1 [Pro-Hyp] (H-Pro-[Hyp]-OH),"competition of free Pro-Hyp with (Pro-Hyp-Gly)5-linked magnetic beads, Western b",These data suggest that Pro-Hyp binds to Foxo1.
